From US4133826A, “Novel inversion process” (Roussel UCLAF, priority 1976, dated 1979)

Legend:
[1] = tested on: domestic flies (houseflies); experiment: Activity against houseflies (topical application); assay type: in vivo, domestic flies of mixed sexes; conditions: for % dead after 24 hours: 1 μl acetone solution, dorsal thorax
Experimental: A. Activity against houseflies
The insecticidal tests were effected on domestic flies of mixed sexes by applying a topical solution of 1 μl of acetone solution of (S) α-cyano-3-phenoxybenzyl 2,2-dimethyl-3R-(2,2-dichlorovinyl)-cyclopropane-1R-carboxylate (product A) to the dorsal thorax of the flies. 50 flies were used for each test and the results were determined as the LD50, dose at which 50% of the flies were dead 24 hours after treatment.

insects = experiment: Insecticidal activity (general statement); assay type: in vivo; conditions: in words
[2] = tested on: Spodoptera Littoralis larvae; experiment: Activity against Spodoptera Littoralis larvae (topical application); assay type: in vivo; conditions: for % dead after 24 h / % dead after 48 h: 1 μl acetone solution
Experimental: B. Activity against Spodoptera Littoralis larvae
This test was effected by topical application of 1 μl of an acetone solution of product A on the dorsal thorax of each larva and for each test, 15 caterpillers of Spodoptera Littoralis in the 4th larva stage were used. After treatment, the individuals were placed in an artificial nutritive media (Poitot medium) and the number of dead caterpillers was determined 24 and 48 hours after the treatment to determine the LD50 dose.

## CC1(C)[C@H](C(=O)O[C@H](C#N)c2cccc(Oc3ccccc3)c2)[C@@H]1C=C(Cl)Cl [product A, (S) α-cyano-3-phenoxybenzyl 2,2-dimethyl-3R-(2,2-dichlorovinyl)-cyclopropane-1R-carboxylate]
[1]; dose 0.625 ng, topical
  % dead after 24 hours: 10.0%
[1]; dose 1.25 ng, topical
  % dead after 24 hours: 34.5%
[1]; dose 2.5 ng, topical
  % dead after 24 hours: 68.0%
[1]; dose 3.75 ng, topical
  % dead after 24 hours: 83.2%
[1]; dose 5 ng, topical
  % dead after 24 hours: 93.3%
[1]; dose at which 50% of the flies were dead 24 hours after treatment, topical
  LD50: 1.6 ng
[1]; in words, experimental tests
  effective against domestic flies: effective against domestic flies
[1]; in words, from Table I
  insecticidal activity against houseflies: very high insecticidal activity
insects
  insecticidal activity: excellent insecticidal activity
[2]; dose 0.1562 ng, topical, dorsal thorax, 4th larva stage
  % dead after 24 h: 20.5%
[2]; dose 0.1562 ng, topical, dorsal thorax, 4th larva stage, 48 h
  % dead after 48 h: 27.3%
[2]; dose 0.3125 ng, topical, dorsal thorax, 4th larva stage
  % dead after 24 h: 48.9%
[2]; dose 0.3125 ng, topical, dorsal thorax, 4th larva stage, 48 h
  % dead after 48 h: 62.2%
[2]; dose 0.625 ng, topical, dorsal thorax, 4th larva stage
  % dead after 24 h: 80.0%
[2]; dose 0.625 ng, topical, dorsal thorax, 4th larva stage, 48 h
  % dead after 48 h: 82.2%
[2]; dose 1.25 ng, topical, dorsal thorax, 4th larva stage
  % dead after 24 h: 95.6%
[2]; dose 1.25 ng, topical, dorsal thorax, 4th larva stage, 48 h
  % dead after 48 h: 97.8%
[2]; in words, experimental tests
  effective against larvae of Spodoptera Littoralis: effective
[2]; topical, dorsal thorax, 4th larva stage, 48 h
  LD50 at 48 h: 0.3 ng
